{"source": "patent US12076312B2", "about": "“Repurposing anti-androgen therapy for COVID-19 and immunotherapy” (Wisconsin Alumni Research Foundation, priority 2021, dated 2024)", "key": {"[1]": {"biological_target": "mutant AR forms (F877L mutation) (Homo sapiens, UniProt P10275, F877L)", "sequence (P10275 whole entry F877L)": "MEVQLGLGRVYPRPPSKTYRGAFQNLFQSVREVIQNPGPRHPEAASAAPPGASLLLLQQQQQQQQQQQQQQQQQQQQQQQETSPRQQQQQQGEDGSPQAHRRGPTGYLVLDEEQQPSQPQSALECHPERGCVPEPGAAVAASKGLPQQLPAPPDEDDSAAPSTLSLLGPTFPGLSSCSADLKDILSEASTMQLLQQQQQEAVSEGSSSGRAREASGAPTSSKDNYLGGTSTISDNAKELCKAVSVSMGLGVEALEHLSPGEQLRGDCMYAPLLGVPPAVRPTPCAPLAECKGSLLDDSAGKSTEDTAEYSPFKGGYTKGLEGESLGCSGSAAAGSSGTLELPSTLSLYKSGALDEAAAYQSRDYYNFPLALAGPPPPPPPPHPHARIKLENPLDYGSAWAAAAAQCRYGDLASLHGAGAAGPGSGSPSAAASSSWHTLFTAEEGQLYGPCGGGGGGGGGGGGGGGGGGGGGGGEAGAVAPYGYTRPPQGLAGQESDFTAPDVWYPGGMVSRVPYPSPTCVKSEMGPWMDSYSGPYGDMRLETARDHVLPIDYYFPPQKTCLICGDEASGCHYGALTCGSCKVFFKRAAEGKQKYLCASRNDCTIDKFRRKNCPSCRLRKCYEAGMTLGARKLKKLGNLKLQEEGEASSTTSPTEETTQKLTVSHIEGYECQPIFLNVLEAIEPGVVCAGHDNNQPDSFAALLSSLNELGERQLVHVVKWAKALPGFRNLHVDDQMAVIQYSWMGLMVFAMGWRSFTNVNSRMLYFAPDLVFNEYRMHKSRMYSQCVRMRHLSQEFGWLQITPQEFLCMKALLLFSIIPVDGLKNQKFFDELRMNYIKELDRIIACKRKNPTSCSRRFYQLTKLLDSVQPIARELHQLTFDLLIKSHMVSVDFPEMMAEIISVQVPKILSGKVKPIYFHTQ", "settings": "F877L mutation that confers resistance to enzalutamide; cited from earlier work"}, "AR": {"biological_target": "AR (Homo sapiens, UniProt P10275)", "sequence (P10275 whole entry)": "as the sequence (P10275 whole entry F877L) above, with L877F counted along it", "settings": "cited from earlier work"}, "[2]": {"system": "AR mRNA in NCI-H2228 lung cancer cells", "assay": "AR mRNA level by qRT-PCR", "type": "cell-based", "procedure": "(§1) From two independent biological experiments with 3 replicates (n=6), RNA samples were collected with TRIzol reagent (Invitrogen) and isolated using RNeasy Mini Kit (Qiagen). RNA concentrations were measured using A260 nm/A280 nm spectroscopy on the Nanodrop ND-1000 (Thermo-scientific). For each RNA sample, 1000 ng of RNA was reversed transcripted into first-strand cDNA using the High-Capacity RNA-to-cDNA Kit (Applied Biosystems).\n(§2) Three independent biological replicates of mRNA samples were collected for each condition, and three technical replicates were run for each sample in qRT-PCR. The fold changes and p-values were calculated with the ΔΔCt method32 and two-sample t-test, respectively. Ubiquitin C (UBC) was used as the housekeeping gene for normalization."}, "[3]": {"system": "AR mRNA in A549 lung cancer cells", "assay": "AR mRNA level by qRT-PCR", "type": "cell-based", "procedure": "as §1, §2"}, "[4]": {"system": "AR responsive genes in A549 cells", "assay": "AR signaling gene panel qRT-PCR", "type": "cell-based", "settings": "A549, enzalutamide 5 μM, 24 h", "procedure": "as §1\n(§3) Changes in expression levels of AR signaling genes were screened using Bio-Rad's PrimePCR pathway 384-well panel: Androgen Receptor Signaling SAB target list (Cat #10047228) and Androgen Receptor Nuclear Signaling (Cat #10025068). […] Two independent biological replicates of mRNA samples were collected for each condition, and one reaction was run for each sample. If necessary, additional technical replicates were run to rule out any outlier. Relative mRNA expressions and p-values were calculated using the ΔΔCt method and two-sample t-test in Bio-Rad CFX Maestro program (version: 4.0.2325.0418). […] The stabilities of housekeeping genes were checked using the geNorm algorithm provided in CFX Maestro. M values of all housekeeping genes used in this study are less than 0.5, which is considered ideal. Log 2-transformed expression levels and −log 10 (p-value) of all treatment groups were plotted as Bubble and Color map graph in the Origin 2020 software."}, "[5]": {"system": "AR responsive genes in NCI-H2228 cells", "assay": "AR signaling gene panel qRT-PCR", "type": "cell-based", "settings": "NCI-H2228, enzalutamide 5 μM, 24 h (FIG. 2C)", "procedure": "as §1, §3"}, "[6]": {"system": "AR protein translocation in A549", "assay": "AR immunofluorescent imaging, nuclear translocation", "settings": "A549, 1 nM R1881, 24 h", "description": "(§4) After incubating in blocking buffer (5% normal goat serum and 0.2% fish skin gelatin in 0.2% Tween/PBS) for 1 hour at room temperature, the cells were stained with primary antibodies overnight at 4° C. […] Immunofluorescence images were captured on Leica TCS WLL SP8 Laser scanning confocal microscopy (Leica Microsystems) using 63× oil immersion objective (Scale bar: 10 μm). Multiple images were taken at different fields of coverslip to obtain at least 100 cells for AR quantification. The sum of pixel intensities of AR signal within the nucleus and cytoplasm was quantified using a custom MATLAB program (R2017b, MathWorks). Briefly, the program utilized the actin and DRAQ5 channels to create masks for the cytoplasm and nucleus regions, respectively. These masks were then used to determine the AR signal within cytoplasm and nucleus, and the nucleus-to-cytoplasm ratio of AR signal was calculated by dividing the AR signal inside the nucleus by the AR signal within the entire cell (nucleus and cytoplasm)."}, "[7]": {"system": "AR protein translocation in H2228", "assay": "AR immunofluorescent imaging, nuclear translocation", "settings": "H2228, 1 nM R1881, 24 h", "description": "as §4"}}, "data": [{"molecule": "CC(O)c1cc(C(=O)N[C@@H](C)Cn2ccc(-c3ccc(C#N)c(Cl)c3)n2)[nH]n1", "note": "(stereo partly shown) [Darolutamide]", "values": [{"measurement": "activity against mutant AR forms", "setting": "[1]", "result": "Remains antagonistic"}, {"measurement": "greater affinity for AR compared with enzalutamide", "setting": "AR", "result": 8, "unit": "fold"}]}, {"molecule": "CNC(=O)c1ccc(N2C(=S)N(c3ccc(C#N)c(C(F)(F)F)c3)C(=O)C2(C)C)cc1F", "note": "[enzalutamide]", "values": [{"measurement": "AR expression", "setting": "[2]; H2228, enzalutamide without ligand stimulation", "result": "increased AR expression"}, {"measurement": "AR expression", "setting": "[3]; A549, enzalutamide without ligand stimulation", "result": "increased AR expression"}, {"measurement": "R1881-induced downregulation of AR expression", "setting": "[3]; male A549, pre-treatment with enzalutamide 30 min before 1 nM R1881", "result": "blocked"}, {"measurement": "FOS expression log 2FC", "setting": "[4]; p-value=0.008", "result": "−1.627", "unit": "log 2FC"}, {"measurement": "IL6 expression log 2FC", "setting": "[4]; p-value=0.023", "result": "−2.41", "unit": "log 2FC"}, {"measurement": "MAF expression log 2FC", "setting": "[4]; p-value=0.035", "result": 2.44, "unit": "log 2FC"}, {"measurement": "IL6 expression", "setting": "[5]", "result": "significantly upregulated"}]}, {"molecule": "C[C@]1(O)CC[C@H]2[C@@H]3CCC4=CC(=O)CCC4=C3C=C[C@@]21C", "note": "[R1881, Metribolone]", "values": [{"measurement": "AR expression", "setting": "[2]; female H2228, androgen (R1881) stimulation", "result": "minimal changes"}, {"measurement": "AR mRNA level", "setting": "[3]; male A549, R1881 1 nM, 2, 4, 8 and 24 h vs control", "result": "temporally downregulated"}, {"measurement": "AR transport to the nucleus", "setting": "[6]", "result": "efficiently transported to the nucleus"}, {"measurement": "AR transport to the nucleus", "setting": "[7]", "result": "efficiently transported to the nucleus"}]}]}
